The results in this text go back to US20070270488A1, “Treatment and Assays” (The Queen's University of Belfast, priority 2004, published 2007).

Each structure is given as a SMILES string. Where two headings read alike, the source gives them in different places.

What all share (type): cell-based, human
Assay [1] relates to HCT116 p53^+/+ parental cells. The assay can be described thus: MTT cytotoxicity assay, HCT116 p53^+/+ parental cells. To be noted: 72 h. The procedure: (§1) Tissue culture. HCT116 p53^+/+ and p53^−/− isogenic human colon cancer cells were kindly provided by Professor Bert Vogelstein (John Hopkins University, Baltimore, Md.). Drug-resistant HCT116 sub-lines were developed in the inventors' laboratory by repeated exposure to stepwise increasing concentrations of 5-FU, CPT-11 or oxaliplatin over a period of approximately ten months. Parental and drug-resistant HCT116 cell lines were grown in McCoy's 5A medium supplemented with 10% dialysed foetal calf serum (FCS), 50 μg/ml penicillin-streptomycin, 2 mM L-glutamine and 1 mM sodium pyruvate (all from GIBCO Invitrogen Corporation, Paisley, Scotland) and maintained at 37° C. in a humidified atmosphere containing 5% CO2. 5-FU-resistant p53^+/+ and p53^−/− HCT116 cells were maintained in the presence of 2 μM and 4 μM 5-FU respectively. CPT-11-resistant p53^+/+ and p53^−/− HCT116 cells were maintained in the presence of 1 μM and 3 μM CPT-11 respectively. […] Prior to each experiment, resistant sub-lines were cultured in the absence of drug for 48 hours.
(§2) Cytotoxicity studies. Cells were seeded at 2000 cells per well in 96-well microtiter plates. After 48 hours, cells were treated with a range of concentrations of 5-FU, CPT-11 or oxaliplatin.
(§3) After 72 hours, 25 μl of MTT dye (5 mg/ml) was added to each well and the plates were incubated at 37° C. for 3 hours. Dark-blue formazan crystals formed by live cells were dissolved in 200 μl of DMSO and absorbance in individual wells was determined at 570 nm using an Emax precision microplate reader (Molecular Devices, Sunnyvale, Calif.).

Assay [2] relates to p53^−/− oxaliplatin-resistant HCT116 cells. The assay can be described thus: MTT cytotoxicity assay, p53^−/− oxaliplatin-resistant HCT116 cells. Particulars: for IC50: p53^−/− oxaliplatin-resistant, MTT, 72 h. The procedure:
as §1, §2, §3
(In general: Tetrazolium dyes change colour on reduction, which living cells bring about.)

Assay [3] concerns p53^+/+ oxaliplatin-resistant HCT116 cells. The assay is described as follows: MTT cytotoxicity assay, p53^+/+ oxaliplatin-resistant HCT116 cells. To be noted: for IC50: p53^+/+ oxaliplatin-resistant, MTT, 72 h. The procedure:
as §1, §2, §3

Assay [4] concerns HCT116 p53^−/− parental cells. The assay is described as follows: MTT cytotoxicity assay, HCT116 p53^−/− parental cells. To be noted: for IC50: MTT, 72 h. The procedure: as §1, §2, §3
Assay [5] has as its system p53^+/+ 5-FU-resistant HCT116 cells. The assay can be described thus: MTT cytotoxicity assay, p53^+/+ 5-FU-resistant HCT116 cells. To be noted: p53^+/+ 5-FU-resistant, MTT, 72 h; read-out: SN-38 IC50(72 h).
Method: (§4) Tissue culture. HCT116 p53^+/+ and p53^−/− isogenic human colon cancer cells were kindly provided by Professor Bert Vogelstein (John Hopkins University, Baltimore, Md.). […] Parental and drug-resistant HCT116 cell lines were grown in McCoy's 5A medium supplemented with 10% dialysed foetal calf serum (FCS), 50 μg/ml penicillin-streptomycin, 2 mM L-glutamine and 1 mM sodium pyruvate (all from GIBCO Invitrogen Corporation, Paisley, Scotland) and maintained at 37° C. in a humidified atmosphere containing 5% CO2. 5-FU-resistant p53^+/+ and p53^−/− HCT116 cells were maintained in the presence of 2 μM and 4 μM 5-FU respectively. […] Prior to each experiment, resistant sub-lines were cultured in the absence of drug for 48 hours.
Assay [6] has as its system p53^+/+ CPT-11-resistant HCT116 cells. The assay can be described thus: MTT cytotoxicity assay, p53^+/+ CPT-11-resistant HCT116 cells.
Method: as §4
Assay [7] relates to p53^−/− CPT-11-resistant HCT116 cells. The assay is described as follows: MTT cytotoxicity assay, p53^−/− CPT-11-resistant HCT116 cells.
Method: as §4
Assay [8] deals with p53^−/− 5-FU-resistant HCT116 cells. The assay is described as follows: MTT cytotoxicity assay, p53^−/− 5-FU-resistant HCT116 cells. To be noted: p53^−/− 5-FU-resistant, MTT, 72 h; read-out: SN-38 IC50(72 h).
Method: as §4
The mark [9] stands for this setting: HCT116 p53^+/+ parental, read-out: IC50(72 h).
[10] abbreviates: HCT116 p53^−/− parental, read-out: IC50(72 h).

Take `N.N.O=C([O-])C1(C(=O)[O-])CCC1.[Pt+2]` [carboplatin]: the IC50 (usually the concentration that inhibits the measured activity by half) in assay [1] (setting [9]) turned out to be 76000 nM; in assay [2] (read-out: IC50(72 h)), 141000 nM; in assay [3] (read-out: IC50(72 h)), 176000 nM; in assay [4] (setting [10]), 78700 nM. Further, the “increase in IC50 (72 hr) compared to parental cells” value in assay [2] (p53^−/− oxaliplatin-resistant vs p53^−/− parental) and in assay [3] (p53^+/+ oxaliplatin-resistant vs p53^+/+ parental) was roughly 2 fold throughout.

On to `CCc1c2c(nc3ccc(O)cc13)-c1cc3c(c(=O)n1C2)COC(=O)[C@]3(O)CC` [SN-38], for which the IC50 in assay [5] came out at 6.5 nM; in assay [1] (p53^+/+ Parental, read-out: SN-38 IC50(72 h)) it was 5.6 nM; in assay [6] (p53^+/+ CPT-11-resistant, MTT, 72 h, read-out: SN-38 IC50(72 h)), 40 nM; in assay [7] (p53^−/− CPT-11-resistant, MTT, 72 h, read-out: SN-38 IC50(72 h)), 540 nM; in assay [2] (read-out: SN-38 IC50(72 h)) it was 3.3 nM; in assay [8] it was 3.6 nM. The IC50 in assay [3] (read-out: SN-38 IC50(72 h)) was 3.7 nM; in assay [4] (p53^−/− Parental, read-out: SN-38 IC50(72 h)) it was 4.2 nM. Further, the entries for the “increase in IC50 (72 hr) compared to parental cells” value in assay [6] (p53^+/+ CPT-11-resistant vs p53^+/+ parental) and in assay [7] (p53^−/− CPT-11-resistant vs p53^−/− parental) were roughly 10 fold and roughly 100 fold, respectively. Also, the “IC50 (72 h) in parental p53^+/+ and p53^−/− cells compared” value in assay [4] (parental HCT116 p53^−/− vs p53^+/+) was “similar”.

For the compound `N.N.[Cl][Pt][Cl]` [cisplatin], the IC50 worked out at 5400 nM in assay [1] (setting [9]), 6700 nM in assay [2] (read-out: IC50(72 h)), 7300 nM in assay [3] (read-out: IC50(72 h)) and 5700 nM in assay [4] (setting [10]).
